The values that follow come from US9409944B2, “Compositions and methods for inhibiting proteases” (The Regents of the University of California, priority 2011, dated 2016).

Each structure is given as a SMILES string.

In test [1] the target is beta 5 subunit (chymotrypsin-like) of the Saccharomyces cerevisiae 20S proteasome (Saccharomyces cerevisiae, UniProt P30656). Put plainly: Inhibition of the beta 5 subunit (chymotrypsin-like) of the 20S proteasome. Type of test: biochemical. The following applies: S. cerevisiae 20S proteasome, pure compound. The source says:
(§1) We discovered the new natural products, compounds having formulas 1 and 2, from a collection of marine cyanobacteria obtained from Curaçao in the Netherland Antilles. We were led to isolate this compound from cancer cell toxicity of the extract and semi-purified fractions.

Test [2] deals with human lung adenocarcinoma (H460) cells. Put plainly: Cytotoxicity to human lung adenocarcinoma (H460) cells. The note with it: NCI-H460. Format: cell-based.
Text: as §1

Take `CCCCCC(=O)N[C@H](C(=O)N[C@@H](CC[S+](C)[O-])C(=O)N[C@@H](CC(C)C)C(=O)[C@@]1(C)CO1)C(C)C` (mixture of isomers) [Compound 1]: in test [1], the half-maximal inhibitory concentration (IC50) was 5.3 ± 0.5 nM. The compound further returned an EC50 in test [2] of 14.5 nM.

With `C[C@@]12OC(=O)[C@]1([C@@H](O)[C@@H]1C=CCCC1)NC(=O)[C@@H]2CCCl` [salinosporamide A, reference compound], in test [1], the IC50 amounted to 1.4 ± 0.2 nM.

By IC50 is commonly meant the concentration at which inhibition is half-maximal. Low values mean greater potency in that assay, high ones weaker potency in that assay. Usually EC50 stands for the concentration at which the effect is half-maximal. Low values mean higher potency in that assay, high ones lower potency in that assay.
